Measurements published in PMC9022196 (Pharmacology Research & Perspectives, 2022).
“And” between values parts separate entries of the source, which are not always exact repeats. Equal values may be shown once. “Also recorded” adds a separate entry of the source. Where a name gives a salt, the structure may show the parent alone. Read-outs that look alike come from different tables or passages of the source.

Assays:
LMH cells [1] = assay: Fluorescence-based in vitro drug screening assay; assay type: cell-based, chicken; settings: for Fluorescence reading / Fluorescence readings compared with the […] AIA control: 18–24 h; for Fluorescence reading: ex 410/em 625 nm; for Fluorescence readings compared with the […] AIA control: in the presence of DFO, 0–1 mM; for Porphyrogenicity / PP accumulation (authors' conclusion in words): with and without DFO
[2] = cited from earlier work; for Maximal plasma concentration: ref 39 (Nagelschmitz et al.), listed as aspirin
HepG2 cells = assay: Fluorescence-based in vitro drug screening assay; assay type: cell-based, human; settings: 1 mM compound + DFO, 18–24 h
HepG2 spheroids = assay: Fluorescence-based in vitro drug screening assay in HepG2 spheroids; assay type: cell-based, human; settings: for Fluorescence reading compared with background: HepG2 organoids/spheroids, 0.5 mM compound with and without DFO
human liver organoids = assay: Fluorescence-based in vitro drug screening assay in human liver organoids; assay type: cell-based; settings: approximately 100 human liver organoids, 0.5 mM compound + DFO, 18–24 h
LMH cells [3] = assay: ATPLite cytotoxicity assay in LMH cells; settings: 1 mM compound in the presence of DFO
[4] = ATPLite cytotoxicity assay in LMH cells; settings: chicken, CC50, LMH cells, 18–24 h, presence of 250 μM DFO
[5] = test system: hydroxymethylbilane synthase; settings: human erythrocytes; cited from earlier work
[6] = test system: hydroxymethylbilane synthase; settings: rat livers; cited from earlier work
[7] = LMH cells, […] compound + 250 μM DFO
[8] = humans, typically used oral doses
[9] = 1 mM compound in the presence of DFO
[10] = LMH cells, 1 mM compound + 250 μM DFO

C#CC1(O)CC[C@H]2[C@@H]3CCC4=CC(=O)CC[C@@H]4[C@H]3CC[C@@]21CC (mixture of isomers) [norgestrel, D (‐) norgestrel]
Fluorescence reading (LMH cells [1]; [7]): 6890 ± 106 RFU | Fluorescence readings compared with the […] AIA control (LMH cells [1]; LMH cells): above the 0.314‐mM AIA control | Porphyrogenicity / PP accumulation (authors' conclusion in words) (LMH cells [1]; LMH cells): porphyrogenic; also recorded: notable accumulation of PP | Maximal serum concentration [2, 8]: approximately 14.1 ng/ml

NCC(=O)CCC(=O)O [ALA, 5‐aminolevulinic acid]
Fold higher fluorescence readings in LMH cells than in HepG2 cells (LMH cells [1]; [9]): approximately 2.1 fold | Fold higher fluorescence readings in LMH cells than in HepG2 organoids (LMH cells [1]; [9]): ~1.9 fold | Fold higher fluorescence readings in LMH cells than in human liver organoids (LMH cells [1]; [9]): ~7 fold | Fluorescence reading (LMH cells [1]; [10]): above 10 000 RFU | Fluorescence reading (HepG2 cells): above 5000 RFU | Fluorescence reading (HepG2 spheroids; approximately 200 HepG2 spheroids, 0.5 mM compound + DFO, 18–24 h): above 6000 RFU | Fluorescence reading (human liver organoids): above 1600 RFU | Cytotoxic effect (LMH cells [3]): mild cytotoxic effects

CC(=O)Nc1ccc(O)cc1 [acetaminophen]
Porphyrogenicity / PP accumulation (authors' conclusion in words) (LMH cells [1]; LMH cells): not porphyrogenic | Maximum plasma concentration ([2]; oral 1000-mg tablet, ref 40 (Hong et al.)): approximately 8.79 mg/L and ~0.058 mM

CC(=O)Oc1ccccc1C(=O)O [acetylsalicylic acid]
Porphyrogenicity / PP accumulation (authors' conclusion in words) (LMH cells [1]; LMH cells): not porphyrogenic | Maximal plasma concentration ([2]; intravenous 500-mg dose): 54.25 mg/L and 0.30 mM | Maximal plasma concentration ([2]; oral 500-mg dose): 4.84 mg/L and 0.027 mM

C[C@](N)(Cc1ccc(O)c(O)c1)C(=O)O [alpha‐methyldopa]
Porphyrogenicity / PP accumulation (authors' conclusion in words) (LMH cells [1]; LMH cells): did not lead to an appreciable accumulation of PP | CC50 [4]: 164 µM

CCN(CCO)CCCC(C)Nc1ccnc2cc(Cl)ccc12 (stereo not drawn) [hydroxychloroquine, hydroxychloroquine sulfate]
Porphyrogenicity / PP accumulation (authors' conclusion in words) (LMH cells [1]; LMH cells): does not upregulate hepatic ALAS‐1 | CC50 [4]: 381 µM

CCC1(c2ccccc2)C(=O)NC(=O)NC1=O [phenobarbital]
Fluorescence reading (LMH cells [1]; [10]): 7513 ± 48 RFU | Fluorescence readings compared with the AIA positive control (LMH cells [1]; LMH cells, concentrations around 0.024 mM): close to the AIA positive control | Fluorescence readings compared with the […] AIA control (LMH cells [1]; LMH cells): above the 0.314‐mM AIA control | Fluorescence reading compared with background (HepG2 spheroids): failed to produce fluorescence readings above background | Maximal serum concentration ([2]; 2.9-mg/kg oral dose, ref 43 (Nelson et al.)): approximately 5.5 mg/L; also recorded: around 0.024 mM

O=C1NC(=O)C(c2ccccc2)(c2ccccc2)N1 [phenytoin sodium]
Maximal serum concentration ([2]; humans, oral 300-mg dose, ref 44 (Suthisisang et al.)): approximately 1.98 µg/ml and ~7.22 µM

O=C1NC(=O)C(c2ccccc2)(c2ccccc2)N1 [phenytoin]
Fluorescence reading (LMH cells [1]; [7]): 5913 ± 190 RFU | Fluorescence readings compared with the […] AIA control (LMH cells [1]; LMH cells): above the 0.314‐mM AIA control | Porphyrogenicity / PP accumulation (authors' conclusion in words) (LMH cells [1]; LMH cells): porphyrogenic | Fluorescence reading compared with background (HepG2 spheroids): failed to produce fluorescence readings above background

CCCC(CCC)C(=O)O [sodium valproate]
Porphyrogenicity / PP accumulation (authors' conclusion in words) (LMH cells [1]; LMH cells): porphyrogenic

Cc1noc(NS(=O)(=O)c2ccc(N)cc2)c1C [sulfisoxazole]
Porphyrogenicity / PP accumulation (authors' conclusion in words) (LMH cells [1]; LMH cells): neither of these drugs led to excess PP accumulation | Effect on the activity of hydroxymethylbilane synthase [5]: did not affect the activity | Effect on the activity of hydroxymethylbilane synthase [6]: did not affect the activity

CCCC(CCC)C(=O)O [valproic acid]
Maximal serum concentration ([2]; humans, typically used oral doses (norgestrel, valproic acid)): ~8.81 mM | Maximal serum concentration [2, 8]: approximately 1271 mg/L

CCCCC(=O)N(Cc1ccc(-c2ccccc2-c2nnn[nH]2)cc1)[C@H](C(=O)O)C(C)C [valsartan]
Porphyrogenicity / PP accumulation (authors' conclusion in words) (LMH cells [1]; LMH cells): did not show evidence of porphyrogenicity

C[C@]12CC[C@@H]3c4ccc(O)cc4CC[C@H]3[C@@H]1CC[C@@H]2O [β‐estradiol]
Porphyrogenicity / PP accumulation (authors' conclusion in words) (LMH cells [1]; LMH cells): notable accumulation of PP
